Assay results: US12527739B2 (Alcon Inc., priority 2022, dated 2026)
Where two headings read alike, the source gives them in different places. Values belong to the molecule of their own block, whether it stands above or below them.

Tests used:
myopia progression = conditions: higher doses; cited from earlier work
[1] = Methyl atropine in lowered-pH phosphate vehicles with tonicity agents; assay type: physicochemical
Description: Therefore, lowering the initial pH value of the vehicles was deemed necessary to: i) ensure higher solubility; and ii) reach an ophthalmically-acceptable target pH (5-8). Also, the addition of tonicity agents was needed to reach the acceptable target range of 280-320 mOsm/kg (Table 4 and Table 5).

M4 muscarinic receptor = molecular target: T1, M4 muscarinic receptor (Homo sapiens, UniProt P08173); assay: Muscarinic receptor radioligand displacement binding, M4
T1 sequence (P08173 1-479): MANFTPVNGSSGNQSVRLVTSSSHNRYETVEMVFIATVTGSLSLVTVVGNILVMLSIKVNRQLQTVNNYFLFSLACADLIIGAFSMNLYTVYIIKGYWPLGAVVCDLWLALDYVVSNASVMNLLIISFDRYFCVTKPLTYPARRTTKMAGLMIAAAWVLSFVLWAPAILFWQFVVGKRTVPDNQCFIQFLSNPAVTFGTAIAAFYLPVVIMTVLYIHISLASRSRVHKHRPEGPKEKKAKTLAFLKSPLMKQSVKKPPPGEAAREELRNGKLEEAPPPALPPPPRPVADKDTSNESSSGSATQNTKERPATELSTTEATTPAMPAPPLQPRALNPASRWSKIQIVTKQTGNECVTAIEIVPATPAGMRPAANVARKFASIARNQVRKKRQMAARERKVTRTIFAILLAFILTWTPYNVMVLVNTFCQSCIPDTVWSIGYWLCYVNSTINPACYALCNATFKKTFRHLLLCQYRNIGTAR

muscarinic receptors = assay: Binding selectivity across the muscarinic receptors; conditions: M1-M5
M2 muscarinic receptor = molecular target: T2, M2 muscarinic receptor (Homo sapiens, UniProt P08172); assay: Muscarinic receptor radioligand displacement binding, M2
T2 sequence (P08172 1-466): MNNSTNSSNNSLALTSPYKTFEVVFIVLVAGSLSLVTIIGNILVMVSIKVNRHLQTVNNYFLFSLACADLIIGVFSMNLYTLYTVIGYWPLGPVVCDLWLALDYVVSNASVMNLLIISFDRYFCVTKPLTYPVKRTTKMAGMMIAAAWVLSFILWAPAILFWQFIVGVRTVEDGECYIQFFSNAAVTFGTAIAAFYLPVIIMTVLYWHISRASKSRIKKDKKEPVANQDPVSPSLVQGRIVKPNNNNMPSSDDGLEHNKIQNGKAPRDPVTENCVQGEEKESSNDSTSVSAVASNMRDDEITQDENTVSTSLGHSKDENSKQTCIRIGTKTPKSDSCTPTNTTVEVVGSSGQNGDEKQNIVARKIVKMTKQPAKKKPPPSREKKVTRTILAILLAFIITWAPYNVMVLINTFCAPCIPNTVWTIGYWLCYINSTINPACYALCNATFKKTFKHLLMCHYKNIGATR

[2] = Solubility screen in two simple vehicles, pH 7.4; conditions: for pH of the formulation: pH 7.4
[3] = 5 min, pH 7.4
M5 muscarinic receptor = molecular target: T3, M5 muscarinic receptor (Homo sapiens, UniProt P08912); assay: Muscarinic receptor radioligand displacement binding, M5
T3 sequence (P08912 1-532): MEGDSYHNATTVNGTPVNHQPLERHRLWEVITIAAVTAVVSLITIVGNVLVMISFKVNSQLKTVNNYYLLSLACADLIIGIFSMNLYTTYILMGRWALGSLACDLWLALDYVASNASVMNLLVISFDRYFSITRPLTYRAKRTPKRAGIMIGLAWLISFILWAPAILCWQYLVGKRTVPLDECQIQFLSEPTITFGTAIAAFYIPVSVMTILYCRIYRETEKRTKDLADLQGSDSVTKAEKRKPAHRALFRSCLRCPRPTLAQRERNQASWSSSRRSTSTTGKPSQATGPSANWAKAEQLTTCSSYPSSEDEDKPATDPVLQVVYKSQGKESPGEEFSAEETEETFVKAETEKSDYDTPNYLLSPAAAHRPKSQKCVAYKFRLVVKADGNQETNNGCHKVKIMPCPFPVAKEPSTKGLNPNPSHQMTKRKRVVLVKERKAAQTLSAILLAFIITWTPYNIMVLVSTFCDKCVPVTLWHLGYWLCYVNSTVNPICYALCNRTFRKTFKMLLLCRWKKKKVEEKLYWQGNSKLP

M1 muscarinic receptor = molecular target: T4, M1 muscarinic receptor (Homo sapiens, UniProt P11229); assay: Muscarinic receptor radioligand displacement binding, M1
T4 sequence (P11229 1-460): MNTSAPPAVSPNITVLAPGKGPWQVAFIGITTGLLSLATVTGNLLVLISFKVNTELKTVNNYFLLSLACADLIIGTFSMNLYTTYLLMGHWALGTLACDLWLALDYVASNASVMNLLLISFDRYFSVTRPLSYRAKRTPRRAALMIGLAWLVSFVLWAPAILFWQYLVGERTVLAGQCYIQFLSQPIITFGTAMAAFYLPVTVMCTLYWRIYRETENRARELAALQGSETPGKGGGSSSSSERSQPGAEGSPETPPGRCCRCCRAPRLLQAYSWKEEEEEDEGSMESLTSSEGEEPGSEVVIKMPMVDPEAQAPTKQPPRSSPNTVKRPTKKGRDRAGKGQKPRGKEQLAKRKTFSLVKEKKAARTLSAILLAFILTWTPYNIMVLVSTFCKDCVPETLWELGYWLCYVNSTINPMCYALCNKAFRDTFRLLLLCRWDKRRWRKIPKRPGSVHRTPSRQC

M3 muscarinic receptor = M3 muscarinic receptor (Homo sapiens, UniProt P20309); assay: Muscarinic receptor radioligand displacement binding, M3
Sequence of M3 muscarinic receptor (P20309 whole entry): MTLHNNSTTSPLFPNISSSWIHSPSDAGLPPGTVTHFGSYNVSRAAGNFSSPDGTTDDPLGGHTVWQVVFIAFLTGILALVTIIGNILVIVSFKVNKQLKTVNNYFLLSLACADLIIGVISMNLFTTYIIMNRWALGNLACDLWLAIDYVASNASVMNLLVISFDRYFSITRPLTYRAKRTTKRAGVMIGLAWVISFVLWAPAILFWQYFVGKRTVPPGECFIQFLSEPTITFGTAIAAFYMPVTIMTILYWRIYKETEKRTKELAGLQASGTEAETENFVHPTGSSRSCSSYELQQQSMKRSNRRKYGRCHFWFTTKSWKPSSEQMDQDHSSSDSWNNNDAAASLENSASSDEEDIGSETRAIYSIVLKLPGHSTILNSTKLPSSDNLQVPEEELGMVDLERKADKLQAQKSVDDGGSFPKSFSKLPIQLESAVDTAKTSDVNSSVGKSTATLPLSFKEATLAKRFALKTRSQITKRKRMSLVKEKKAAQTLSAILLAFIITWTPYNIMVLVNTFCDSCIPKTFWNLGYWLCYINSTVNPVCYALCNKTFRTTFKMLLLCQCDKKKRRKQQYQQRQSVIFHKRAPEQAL

[4] = pH adjustment of methyl atropine and benzyl atropine solutions, HPLC analysis; assay type: physicochemical; conditions: for Actual concentration (HPLC): after pH adjustment; for Initial pH: before pH adjustment
[5] = system: form deprivation-induced myopia (FDM); assay: Form deprivation-induced myopia (FDM) chick model; assay type: in vivo; conditions: FIG. 1 Panel A; for efficacy in FDM chick model: intravitreal injection day 2 and day 4, readout day 5; for change in refractive error (goggled eye value minus ungoggled eye value): with respect to 5% v/v ethanol solution
[6] = 0.5% Sodium Chloride in 20 mM Phosphate Buffer, pH 2.71
[7] = 3% Mannitol in 20 mM Phosphate Buffer, pH 4.8
[8] = 3.7% Mannitol in 20 mM Phosphate Buffer, pH 2.82
[9] = […] Sodium Choride in 20 mM Phosphate Buffer, pH 4.8

Structure (SMILES): CN1[C@@H]2CC[C@H]1C[C@@H](OC(=O)C(CO)c1ccccc1)C2 (mixture of isomers) [Atropine, atropine]
side effects (myopia progression): pupillary dilation and light sensitivity

Actual Concentration [1, 6]: 5.38 mg/g | Final pH [1, 6]: 6.7 | Osmolality [1, 6]: 202.5 mOsm/kg | Actual Concentration [1, 7]: 5.62 mg/g | Final pH [1, 7]: 8.8 | Osmolality [1, 7]: 217 mOsm/kg | Actual Concentration [1, 8]: 5.14 mg/g | Final pH [1, 8]: 6.8 | Osmolality [1, 8]: 262.5 mOsm/kg | Actual Concentration [1, 9]: 5.14 mg/g | Final pH [1, 9]: 8.0 | Osmolality [1, 9]: 182.5 mOsm/kg | Ki (M4 muscarinic receptor): 1.2 nM | selectivity of binding to the muscarinic receptors (muscarinic receptors): non-selective binding | Ki (M2 muscarinic receptor): 7.8 nM | pH of the formulation ([2]; 30 mM Phosphate Buffer): 9.2 | pH of the formulation ([2]; Phosphate Buffered Saline): 9.6 | dissolution in vehicle (in words) ([2]; both vehicles: 30 mM phosphate buffer pH 7.4 and phosphate-buffered saline pH 7.4): did not entirely dissolve | Actual Concentration [3]: 1.63 mg/g | Ki (M5 muscarinic receptor): 2.2 nM | Ki (M1 muscarinic receptor): 3.4 nM | Ki (M3 muscarinic receptor): 2.4 nM | Actual concentration (HPLC) ([4]; 30 mM Phosphate Buffer, pH 7.4): 4.61 mg/g | Initial pH ([4]; 30 mM Phosphate Buffer, pH 7.4): 8.1 | Actual concentration (HPLC) ([4]; Phosphate Buffered Saline): 4.89 mg/g | Initial pH ([4]; Phosphate Buffered Saline): 9.3
Structure (SMILES): C[N+]1(C)[C@@H]2CC[C@H]1C[C@@H](OC(=O)C(CO)c1ccccc1)C2 (stereo partly shown) [Methyl Atropine, methyl atropine]
efficacy in FDM chick model [5]: effective | change in refractive error (goggled eye value minus ungoggled eye value) [5]: significantly decreased

Structure (SMILES): CN1C2CCC1CC(OC(=O)C(F)(CO)c1ccccc1)C2 (stereo not shown) [fluoro-atropine]
efficacy in FDM chick model [5]: effective | change in refractive error (goggled eye value minus ungoggled eye value) [5]: significantly decreased
